# Patent US20260374773A1, “MULTI-CYCLIC IRAK AND FLT3 INHIBITING COMPOUNDS AND USES THEREOF” (CHILDREN'S HOSPITAL MEDICAL CENTER, priority 2022, published 2026)
# Assays:
# NF-κB [1] = assay: NF-κB SEAP reporter assay in THP-1-Blue NF-κB cells, hIL1B stimulated; format: cell-based; conditions: Table 21; THP-1-Blue cells, 1 ng/ml hIL1B, 24 h; read-out: NF-κB IL1B IC50
# Experimental: (§1) THP-1-Blue NF-κB cells (InvivoGen) carrying a stable integrated NF-κB-inducible secreted embryonic alkaline phosphatase (SEAP) reporter construct were plated at a concentration of 1×10^5 cells per well. The cells were stimulated with Pam3CSK4 (1 ng/ml) or hIL1B (1 ng/ml). After 10-20 minutes, the cells were then treated with vehicle (DMSO) or serial dilutions of the test compounds (10 doses tested for each test compound, with a […] starting at 1 μM or 3 μM) with a final volume of 200 μL for 24 hours at 37 °C. After 24 hours, the cells were centrifuged and 20 μL supernatant was incubated with 180 μL QUANTI-Blue reagent at 37 °C for 30-60 minutes. The levels of NF-κB-induced was measured in a microplate reader at 620 nm.
# as §1, with “1 mM” for “1 μM”, “3 mM)” for “3 μM)”, “200 mL” for “200 μL”, “20 mL” for “20 μL”, “180 mL” for “180 μL”, “NF-κB-induced gene expression were” for “NF-κB-induced was”
# IRAK1 = IRAK1 (Homo sapiens, UniProt P51617); assay: RBC HotSpot kinase inhibition assay, IRAK1; format: biochemical; conditions: Table 17; isolated kinase, 33P-ATP, 2 h
# Text: (§2) This assay uses the isolated kinase enzyme. This assay is very useful for determining competition of the inhibitor for ATP and/or substrates and for measuring the kinetics of enzyme inhibition. […] Unlike kinase binding assays that measure competition for ATP, the HotSpot Kinase Assay is a functional assay that measures catalytic activity; as such it measures relative functional potency regardless of the mechanism of enzyme inhibition. This assay uses the form of the various enzymes that are easiest to express, which may not necessarily be the form of the enzyme that exist in the cell. (Sometimes the carboxy terminus has been truncated to aid in expression, or, if it is a receptor kinase, the enzyme itself is isolated from the other parts of the receptor that are involved in regulating kinase activity.)
# (§3) The reagent used was as follows: Base Reaction buffer; 20 mM Hepes (pH 7.5), 10 mM MgCl2, 1 mM EGTA, 0.01% Brij35, 0.02 mg/ml BSA, 0.1 mM Na3VO4, 2 mM DTT, 1% DMSO. Required cofactors were added individually to each kinase reaction.
# (§4) The reaction procedure was as follows: • 1) Substrates were prepared in freshly prepared Reaction Buffer. • 2) Any required cofactors were delivered to the substrate solution above. • 3) Kinase was delivered into the substrate solution and gently mixed. • 4) Compounds were delivered in 100% DMSO into the kinase reaction mixture by Acoustic technology (Echo550; nanoliter range), followed by incubation for 20 min at room temp. • 5) ^33P-ATP was delivered into the reaction mixture to initiate the reaction. • 6) The mixture was incubated for 2 hours at room temperature. • 7) Kinase activity was detected by P81 filter-binding method.
# as §2, with “Although not wishing to be limited by theory, it is believed that sometimes” for “(Sometimes”, “activity.” for “activity.)”
# (§5) The reagent used was as follows: Base Reaction buffer; 20 mM Hepes (pH 7.5), 10 mM MgCl2, 1 mM EGTA, 0.01% Brij35, 0.02 mg/ml BSA, 0.1 mM Na3 VO4, 2 mM DTT, 1% DMSO.
# (§6) Required cofactors were added individually to each kinase reaction.
# as §4, with “33P-ATP” for “^33P-ATP”
# FLT3 = biological target: T1, FLT3 (Homo sapiens, UniProt P36888); assay: RBC HotSpot kinase inhibition assay, FLT3; format: biochemical; conditions: Table 17; isolated kinase, 33P-ATP, 2 h
# T1 sequence (P36888 27-993): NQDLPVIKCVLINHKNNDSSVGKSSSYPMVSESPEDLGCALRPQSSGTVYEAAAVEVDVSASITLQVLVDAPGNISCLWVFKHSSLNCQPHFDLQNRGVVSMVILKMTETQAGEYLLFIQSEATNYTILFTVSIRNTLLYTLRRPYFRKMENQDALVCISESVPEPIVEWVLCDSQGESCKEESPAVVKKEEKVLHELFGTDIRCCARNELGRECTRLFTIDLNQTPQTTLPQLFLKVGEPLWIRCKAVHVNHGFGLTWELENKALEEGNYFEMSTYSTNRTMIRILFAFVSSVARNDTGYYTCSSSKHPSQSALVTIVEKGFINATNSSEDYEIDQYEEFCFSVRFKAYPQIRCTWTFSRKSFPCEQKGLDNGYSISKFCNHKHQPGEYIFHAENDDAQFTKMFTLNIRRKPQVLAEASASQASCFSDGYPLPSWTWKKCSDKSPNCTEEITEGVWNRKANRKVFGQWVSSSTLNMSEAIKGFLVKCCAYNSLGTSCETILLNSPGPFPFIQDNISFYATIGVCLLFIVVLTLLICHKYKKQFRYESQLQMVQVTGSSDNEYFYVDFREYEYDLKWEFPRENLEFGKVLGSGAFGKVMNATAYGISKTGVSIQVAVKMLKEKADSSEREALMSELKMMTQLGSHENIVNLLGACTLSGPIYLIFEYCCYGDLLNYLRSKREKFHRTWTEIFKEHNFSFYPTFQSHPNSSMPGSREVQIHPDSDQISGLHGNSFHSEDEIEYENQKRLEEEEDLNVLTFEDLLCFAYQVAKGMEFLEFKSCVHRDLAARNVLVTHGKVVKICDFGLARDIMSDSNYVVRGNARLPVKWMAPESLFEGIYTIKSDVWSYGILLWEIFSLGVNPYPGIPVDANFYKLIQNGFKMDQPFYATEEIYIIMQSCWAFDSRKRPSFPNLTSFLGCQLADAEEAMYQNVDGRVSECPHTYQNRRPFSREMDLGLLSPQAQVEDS
# Text: as §2, §3, §4
# as §2, with “Although not wishing to be limited by theory, it is believed that sometimes” for “(Sometimes”, “activity.” for “activity.)”
# as §5, §6
# as §4, with “33P-ATP” for “^33P-ATP”
# NF-κB [2] = assay: NF-κB SEAP reporter assay in THP-1-Blue NF-κB cells, Pam3CSK4 stimulated; format: cell-based; conditions: Table 21; THP-1-Blue cells, 1 ng/ml Pam3CSK4, 24 h; read-out: NF-κB Pam3SCK4 IC50
# Experimental: as §1
# as §1, with “1 mM” for “1 μM”, “3 mM)” for “3 μM)”, “200 mL” for “200 μL”, “20 mL” for “20 μL”, “180 mL” for “180 μL”, “NF-κB-induced gene expression were” for “NF-κB-induced was”
# IRAK4 = biological target: T2, IRAK4 (Homo sapiens, UniProt Q9NWZ3); assay: RBC HotSpot kinase inhibition assay, IRAK4; format: biochemical; conditions: Table 17; isolated kinase, 33P-ATP, 2 h
# T2 sequence (Q9NWZ3 1-460): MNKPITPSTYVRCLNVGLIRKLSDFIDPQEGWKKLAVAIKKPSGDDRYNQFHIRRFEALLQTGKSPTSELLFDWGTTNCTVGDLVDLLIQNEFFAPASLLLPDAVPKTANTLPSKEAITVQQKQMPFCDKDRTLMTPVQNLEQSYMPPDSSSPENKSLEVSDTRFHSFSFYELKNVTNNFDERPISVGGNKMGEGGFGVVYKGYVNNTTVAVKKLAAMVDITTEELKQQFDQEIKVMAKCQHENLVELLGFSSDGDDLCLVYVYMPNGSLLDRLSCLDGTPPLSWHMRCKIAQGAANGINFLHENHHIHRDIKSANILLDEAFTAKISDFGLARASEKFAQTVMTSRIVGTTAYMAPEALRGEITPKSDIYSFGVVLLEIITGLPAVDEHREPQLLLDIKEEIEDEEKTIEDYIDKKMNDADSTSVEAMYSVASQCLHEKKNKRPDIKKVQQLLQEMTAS
# Text: as §2, §3, §4
# as §2, with “Although not wishing to be limited by theory, it is believed that sometimes” for “(Sometimes”, “activity.” for “activity.)”
# as §5, §6
# as §4, with “33P-ATP” for “^33P-ATP”
# MOLM14 F691L cells = assay: MOLM14 F691L cell viability (Cell Titer Glo); format: cell-based; conditions: Homo sapiens, MOLM-14, Table 22, 48 h
# Experimental: (§7) Both cell lines have activated FLT3 receptors, each of which carry additional resistance mutations in the kinase domain (D835Y and F691L, respectively).
# (§8) MOLM14 D835Y and MOLM14 F691L cells were grown in RPMI-1640 media supplemented with 20% fetal bovine serum (FBS). For viability/cytotoxicity assessments, cells were seeded into 1536-well white polystyrene tissue culture-treated Greiner plates using a Multidrop Combi dispenser (ThermoFisher), in final volume 5 μL of growth media per well, at a density of 1000 cells per well. After cell addition, 23 nL of test compound were transferred into individual wells (22 doses tested for each test compound, with a 1:2 dilution series starting at 10 μM) via a 1536 pin-tool. Bortezomib (final concentration 2.3 μM) was used as a positive control for cell cytotoxicity. Plates were incubated for 48 hours at standard incubator conditions covered by a stainless steel gasketed lid to prevent evaporation. 48 hours post compound addition, 3 μL of Cell Titer Glo (Promega) were added to each well and plates were incubated at room temperature for 15 minutes with the stainless-steel lid in place. Luminescence readings were taken using a Viewlux imager (PerkinElmer) with a 2 second exposure time per plate.
# MOLM14 D835Y cells = assay: MOLM14 D835Y cell viability (Cell Titer Glo); format: cell-based; conditions: Homo sapiens, MOLM-14, Table 22, 48 h
# Experimental: as §7, §8
# This cell line has activated FLT3 receptors, which carries an additional resistance mutation in the kinase domain at D835Y.
# as §8, with “D835Y” for “D835Y and MOLM14 F691L”, “mL” for “μL”, “mM)” for “μM)”
# IRAK1, sequence (P51617 whole entry, the tested form may be a part): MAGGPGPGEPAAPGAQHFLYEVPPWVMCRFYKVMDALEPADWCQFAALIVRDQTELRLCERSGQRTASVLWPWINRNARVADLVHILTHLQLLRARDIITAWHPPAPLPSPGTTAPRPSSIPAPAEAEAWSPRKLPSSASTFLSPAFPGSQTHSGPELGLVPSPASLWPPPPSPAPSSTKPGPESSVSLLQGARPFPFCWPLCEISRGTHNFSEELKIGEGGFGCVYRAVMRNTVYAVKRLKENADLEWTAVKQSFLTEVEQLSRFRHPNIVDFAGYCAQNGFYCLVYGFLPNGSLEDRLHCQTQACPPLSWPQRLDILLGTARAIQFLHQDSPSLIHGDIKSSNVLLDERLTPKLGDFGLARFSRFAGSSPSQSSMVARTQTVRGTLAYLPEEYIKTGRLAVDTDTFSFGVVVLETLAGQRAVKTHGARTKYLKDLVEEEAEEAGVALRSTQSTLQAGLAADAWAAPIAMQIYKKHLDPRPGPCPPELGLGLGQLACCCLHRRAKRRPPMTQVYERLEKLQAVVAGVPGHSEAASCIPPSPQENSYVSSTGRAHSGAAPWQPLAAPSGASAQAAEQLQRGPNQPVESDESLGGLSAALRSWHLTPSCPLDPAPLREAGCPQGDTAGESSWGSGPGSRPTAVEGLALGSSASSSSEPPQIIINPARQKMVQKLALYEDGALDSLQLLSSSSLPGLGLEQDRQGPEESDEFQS
IC50 (NF-κB [1]) [nM],IC50 (IRAK1) [nM],IC50 (FLT3) [nM],IC50 (NF-κB [2]) [nM],IC50 (IRAK4) [nM],IC50 (MOLM14 F691L cells) [nM],IC50 (MOLM14 D835Y cells) [nM],SMILES
128,44,< 0.5,173,4,,,"COc1cn2ncc(-c3ccnc(N[C@@H]4CCCNC4)n3)c2nc1C1CC1 [Compound 9a, (R)-4-(5-cyclopropyl-6-methoxypyrazolo[1,5-a]pyrimidin-3-yl)-N-(piperidin-3-yl)pyrimidin-2-amine]"
,365,8,,127,1790,159,"COc1cn2ncc(-c3ccnc(N[C@@H]4CCCNC4)n3)c2nc1C(C)(C)O [Compound 2a, (R)-2-(6-methoxy-3-(2-(piperidin-3-ylamino)pyrimidin-4-yl)pyrazolo[1,5-a]pyrimidin-5-yl)propan-2-ol]"
